This note sets out measurements from US20160297833A1, “THIENOPYRIMIDINES AS MKNK1 AND MKNK2 INHIBITORS” (BAYER PHARMA AKTIENGESELLSCHAFT, priority 2013, published 2016).

pIC50: −log10 of the molar value.

For one assay, the target named is T1, human full-length MKNK1 (Homo sapiens, UniProt Q9BUB5, T385D).
T1 construct: GST (N); purchased Carna Biosciences 02-145; host or cells: insect cells (baculovirus expression system)
T1 sequence (Q9BUB5 1-424 isoform Q9BUB5-2 T344D): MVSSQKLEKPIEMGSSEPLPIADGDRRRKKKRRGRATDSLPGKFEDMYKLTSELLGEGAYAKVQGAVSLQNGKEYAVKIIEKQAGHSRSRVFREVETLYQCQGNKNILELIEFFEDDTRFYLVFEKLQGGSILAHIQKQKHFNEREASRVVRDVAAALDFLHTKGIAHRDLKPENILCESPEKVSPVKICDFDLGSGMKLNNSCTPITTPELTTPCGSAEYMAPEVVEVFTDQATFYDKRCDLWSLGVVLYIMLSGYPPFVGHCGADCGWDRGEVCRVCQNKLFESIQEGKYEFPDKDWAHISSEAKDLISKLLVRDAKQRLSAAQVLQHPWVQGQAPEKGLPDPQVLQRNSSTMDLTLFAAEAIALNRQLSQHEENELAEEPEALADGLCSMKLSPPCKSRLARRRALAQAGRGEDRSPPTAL
Briefly: MKNK1 kinase high ATP assay (TR-FRET). As to conditions: Table 1; MKNK1 kinase high ATP assay, 2 mM ATP; read-out: MKNK1 IC50. Format: biochemical. As to the method:
MKNK1 Kinase High ATP Assay
MKNK1-inhibitory activity at high ATP of compounds of the present invention after their preincubation with MKNK1 was quantified employing the TR-FRET-based MKNK1 high ATP assay as described in the following paragraphs.
As substrate for the kinase reaction the biotinylated peptide biotin-Ahx-[…] (C-terminus in amide form) was used, which can be purchased e.g. from the company Biosyntan (Berlin-Buch, Germany).
For the assay 50 nL of a 100 fold concentrated solution of the test compound in DMSO was pipetted into a black low volume 384 well microtiter plate (Greiner Bio-One, Frickenhausen, Germany), 2 μL of a solution of MKNK1 in aqueous assay buffer [50 mM HEPES pH 7.5, 5 mM MgCl2, 1.0 mM dithiothreitol, 0.005% (v/v) Nonidet-P40 (Sigma)] was added and the mixture was incubated for 15 min at 22° C. to allow pre-binding of the test compounds to the enzyme before the start of the kinase reaction. Then the kinase reaction was started by the addition of 3 μL of a solution of adenosine-tri-phosphate (ATP, 3.3 mM=>final conc. in the 5 μL assay volume is 2 mM) and substrate (0.1 μM=>final conc. in the 5 μL assay volume is 0.06 μM) in assay buffer and the resulting mixture was incubated for a reaction time of 30 min at 22° C. The concentration of MKNK1 was adjusted depending of the activity of the enzyme lot and was chosen appropriate to have the assay in the linear range, typical concentrations were in the range of 0.003 μg/mL. The reaction was stopped by the addition of 5 μL of a solution of TR-FRET detection reagents (5 nM streptavidine-XL665 [Cisbio Bioassays, Codolet, France] and 1 nM anti-ribosomal protein S6 (pSer236)-antibody from Invitrogen [#44921G] and 1 nM LANCE EU-W1024 labeled ProteinG [Perkin-Elmer, product no. AD0071]) in an aqueous EDTA-solution (100 mM EDTA, 0.1% (w/v) bovine serum albumin in 50 mM HEPES pH 7.5).
The resulting mixture was incubated for 1 h at 22° C. to allow the formation of complex between the phosphorylated biotinylated peptide and the detection reagents. Subsequently the amount of phosphorylated substrate was evaluated by measurement of the resonance energy transfer from the Eu-chelate to the streptavidine-XL. Therefore, the fluorescence emissions at 620 nm and 665 nm after excitation at 350 nm were measured in a TR-FRET reader, e.g. a Rubystar (BMG Labtechnologies, Offenburg, Germany) or a Viewlux (Perkin-Elmer). The ratio of the emissions at 665 nm and at 622 nm was taken as the measure for the amount of phosphorylated substrate.
In general terms: In TR-FRET formats the signal depends on donor and acceptor labels being close together.
Consider `C[C@@H]1CN(C(=O)[C@H]2CCc3c(sc4ncnc(Nc5cc6cn[nH]c6cc5N(C)C)c34)C2)C[C@@H](C)O1` [Example 240, [(7S)-4-{[6-(Dimethylamino)-1H-indazol-5-yl]amino}-5,6,7,8-tetrahydro[1]benzothieno[2,3-d]pyrimidin-7-yl][(2R,6R)-2,6-dimethylmorpholin-4-yl]methanone], for which the pIC50 was 9.70.

As for `CC(C)Oc1cc2[nH]ncc2cc1Nc1ncnc2sc3c(c12)CC[C@H](C(=O)N(C)CC(F)F)C3` [Example 81, (7S)—N-(2,2-Difluoroethyl)-N-methyl-4-{[6-(propan-2-yloxy)-1H-indazol-5-yl]amino}-5,6,7,8-tetrahydro[1]benzothieno[2,3-d]pyrimidine-7-carboxamide], the negative-log IC50 (pIC50) is 9.52.

For the compound `C[C@@H]1COCCN1C(=O)[C@H]1CCc2c(sc3ncnc(Nc4cc5cn[nH]c5cc4N(C)C)c23)C1` [Example 187, [(7S)-4-{[6-(Dimethylamino)-1H-indazol-5-yl]amino}-5,6,7,8-tetrahydro[1]benzothieno[2,3-d]pyrimidin-7-yl][(3R)-3-methylmorpholin-4-yl]methanone], the negative-log IC50 (pIC50) was 9.70.

As to `COc1cc2[nH]ncc2cc1Nc1ncnc2sc3c(c12)CC[C@H](C(=O)N1CCC1)C3` [Example 21, Azetidin-1-yl{(7S)-4-[(6-methoxy-1H-indazol-5-yl)amino]-5,6,7,8-tetrahydro[1]benzothieno[2,3-d]pyrimidin-7-yl}methanone], the pIC50 was 9.40.

In the case of `COCCN(C)C(=O)[C@H]1CCc2c(sc3ncnc(Nc4ccc5[nH]ncc5c4)c23)C1` [Example 13, (7S)-4-(1H-Indazol-5-ylamino)-N-(2-methoxyethyl)-N-methyl-5,6,7,8-tetrahydro[1]benzothieno[2,3-d]pyrimidine-7-carboxamide], the pIC50 was 8.49.

Turning to `CN(C)c1cc2[nH]ncc2cc1Nc1ncnc2sc3c(c12)CC[C@H](C(=O)N1CCC1)C3` [Example 196, Azetidin-1-yl[(7S)-4-{[6-(dimethylamino)-1H-indazol-5-yl]amino}-5,6,7,8-tetrahydro[1]benzothieno[2,3-d]pyrimidin-7-yl]methanone], the pIC50 was 10.00.

As to `CN(C)C(=O)[C@H]1CCc2c(sc3ncnc(Nc4cc5cn[nH]c5cc4OCCCN=[N+]=[N-])c23)C1` [Example 110, (7S)-4-{[6-(3-Azidopropoxy)-1H-indazol-5-yl]amino}-N,N-dimethyl-5,6,7,8-tetrahydro[1]benzothieno[2,3-d]pyrimidine-7-carboxamide], the pIC50 is 8.64.

As for `CN(C)C(=O)[C@H]1CCc2c(sc3ncnc(Nc4cc5cn[nH]c5cc4OCCN(C)C(=O)OC(C)(C)C)c23)C1` [Example 256, tert-Butyl {2-[(5-{[(7S)-7-(dimethylcarbamoyl)-5,6,7,8-tetrahydro[1]benzothieno[2,3-d]pyrimidin-4-yl]amino}-1H-indazol-6-yl)oxy]ethyl}methylcarbamate], the pIC50 was 7.36.

On to `CN(C)C(=O)[C@H]1CCc2c(sc3ncnc(Nc4cc5cn[nH]c5cc4OC(F)(F)F)c23)C1` [Example 191, (7S)—N,N-Dimethyl-4-{[6-(trifluoromethoxy)-1H-indazol-5-yl]amino}-5,6,7,8-tetrahydro[1]benzothieno[2,3-d]pyrimidine-7-carboxamide], for which the pIC50 is 8.85.

Take `CC(C)Oc1cc2[nH]ncc2cc1Nc1ncnc2sc3c(c12)CC[C@@H](C(=O)N(C)C)C3` [Example 79, (7R)—N,N-Dimethyl-4-{[6-(propan-2-yloxy)-1H-indazol-5-yl]amino}-5,6,7,8-tetrahydro[1]benzothieno[2,3-d]pyrimidine-7-carboxamide]: the pIC50 is 7.92.

As to `C[C@@H](CN)Oc1cc2[nH]ncc2cc1Nc1ncnc2sc3c(c12)CC[C@H](C(=O)N(C)C)C3` [Example 141, (7S)-4-[(6-{[(25)-1-Aminopropan-2-yl]oxy}-1H-indazol-5-yl)amino]-N,N-dimethyl-5,6,7,8-tetrahydro[1]benzothieno[2,3-d]pyrimidine-7-carboxamide], the negative logarithm of the IC50 (pIC50) is 8.47.

For the compound `CCN(C)C(=O)[C@H]1CCc2c(sc3ncnc(Nc4cc5cn[nH]c5cc4OC)c23)C1` [Example 24, (7S)—N-Ethyl-4-[(6-methoxy-1H-indazol-5-yl)amino]-N-methyl-5,6,7,8-tetrahydro[1]benzothieno[2,3-d]pyrimidine-7-carboxamide], the negative logarithm of the IC50 (pIC50) was 9.70.

For the compound `C[C@@H]1CN(C(=O)[C@H]2CCc3c(sc4ncnc(Nc5cc6cn[nH]c6cc5Br)c34)C2)C[C@H](C)O1` [Example 234, {(7S)-4-[(6-Bromo-1H-indazol-5-yl)amino]-5,6,7,8-tetrahydro[1]benzothieno[2,3-d]pyrimidin-7-yl}[(2R,6S)-2,6-dimethylmorpholin-4-yl]methanone], the negative logarithm of the IC50 (pIC50) is 8.47.

`CC(C)Oc1cc2[nH]ncc2cc1Nc1ncnc2sc3c(c12)CC[C@H](C(=O)N1CCCC1)C3` [Example 83, [(7S)-4-{[6-(Propan-2-yloxy)-1H-indazol-5-yl]amino}-5,6,7,8-tetrahydro[1]benzothieno[2,3-d]pyrimidin-7-yl](pyrrolidin-1-yl)methanone]: the negative-log IC50 (pIC50) is 9.52.

As to `COc1cc2[nH]ncc2cc1Nc1ncnc2sc3c(c12)CC[C@H](C(=O)N1CCC(F)(F)C1)C3` [Example 208, (3,3-Difluoropyrrolidin-1-yl){(7S)-4-[(6-methoxy-1H-indazol-5-yl)amino]-5,6,7,8-tetrahydro[1]benzothieno[2,3-d]pyrimidin-7-yl}methanone], the pIC50 is 9.22.

As to `CC(C)Oc1cc2[nH]ncc2cc1Nc1ncnc2sc3c(c12)CC[C@H](C(=O)N1CC(N(C)C)C1)C3` [Example 219, [3-(Dimethylamino)azetidin-1-yl][(7S)-4-{[6-(propan-2-yloxy)-1H-indazol-5-yl]amino}-5,6,7,8-tetrahydro[1]benzothieno[2,3-d]pyrimidin-7-yl]methanone], the negative-log IC50 (pIC50) is 9.70.

Regarding `C[C@H]1COCCN1C(=O)[C@H]1CCc2c(sc3ncnc(Nc4cc5cn[nH]c5cc4OCCN4CCCCC4)c23)C1` [Example 119, [(3S)-3-Methylmorpholin-4-yl][(7S)-4-({6-[2-(piperidin-1-yl)ethoxy]-1H-indazol-5-yl}amino)-5,6,7,8-tetrahydro[1]benzothieno[2,3-d]pyrimidin-7-yl]methanone], the pIC50 is 6.12.

`COc1cc2[nH]ncc2cc1Nc1ncnc2sc3c(c12)CC[C@H](C(=O)N1CC(F)(F)C1)C3` [Example 164, (3,3-difluoroazetidin-1-yl){(7S)-4-[(6-methoxy-1H-indazol-5-yl)amino]-5,6,7,8-tetrahydro[1]benzothieno[2,3-d]pyrimidin-7-yl}methanone]: the pIC50 is 9.15.

On to `CN(C)C(=O)[C@H]1CCc2c(sc3ncnc(Nc4cc5cn[nH]c5cc4OCCCN4CC(F)C4)c23)C1` [Example 276, (7S)-4-({6-[3-(3-Fluoroazetidin-1-yl)propoxy]-1H-indazol-5-yl}amino)-N,N-dimethyl-5,6,7,8-tetrahydro[1]benzothieno[2,3-d]pyrimidine-7-carboxamide], for which the pIC50 is 7.99.

`C[C@@H](N)COc1cc2[nH]ncc2cc1Nc1ncnc2sc3c(c12)CC[C@H](C(=O)N(C)C)C3` [Example 147, (7S)-4-[(6-{[(2R)-2-Aminopropyl]oxy}-1H-indazol-5-yl)amino]-N,N-dimethyl-5,6,7,8-tetrahydro[1]benzothieno[2,3-d]pyrimidine-7-carboxamide]: the negative-log IC50 (pIC50) was 8.25.

As to `COc1cc2[nH]ncc2cc1Nc1ncnc2sc3c(c12)CC[C@H](C(=O)N1CC(C)(O)C1)C3` [Example 36, (3-hydroxy-3-Methylazetidin-1-yl){(7S)-4-[(6-methoxy-1H-indazol-5-yl)amino]-5,6,7,8-tetrahydro[1]benzothieno[2,3-d]pyrimidin-7-yl}methanone], the negative-log IC50 (pIC50) is 9.30.

With `COc1cc2[nH]ncc2cc1Nc1ncnc2sc3c(c12)CC[C@H](C(=O)N1CCOC[C@H]1C)C3` [Example 31, {(7S)-4-[(6-Methoxy-1H-indazol-5-yl)amino]-5,6,7,8-tetrahydro[1]benzothieno[2,3-d]pyrimidin-7-yl}[(3R)-3-methylmorpholin-4-yl]methanone], the pIC50 was 9.10.

The same assay, now with this note: Table 2; ratio of the IC50-value of an R-enantiomer and its corresponding S-enantiomer.
In the case of `CC(C)Oc1cc2[nH]ncc2cc1Nc1ncnc2sc3c(c12)CC[C@H](C(=O)N(C)CC(F)F)C3` [Example 81, (7S)—N-(2,2-Difluoroethyl)-N-methyl-4-{[6-(propan-2-yloxy)-1H-indazol-5-yl]amino}-5,6,7,8-tetrahydro[1]benzothieno[2,3-d]pyrimidine-7-carboxamide], the “Activity-Ratio MKNK1” value is reported as 27.5.

For `COc1cc2[nH]ncc2cc1Nc1ncnc2sc3c(c12)CC[C@H](C(=O)N1CCC1)C3` [Example 21, Azetidin-1-yl{(7S)-4-[(6-methoxy-1H-indazol-5-yl)amino]-5,6,7,8-tetrahydro[1]benzothieno[2,3-d]pyrimidin-7-yl}methanone], the “Activity-Ratio MKNK1” value is on record as 53.1.

Turning to `CCN(C)C(=O)[C@H]1CCc2c(sc3ncnc(Nc4cc5cn[nH]c5cc4OC)c23)C1` [Example 24, (7S)—N-Ethyl-4-[(6-methoxy-1H-indazol-5-yl)amino]-N-methyl-5,6,7,8-tetrahydro[1]benzothieno[2,3-d]pyrimidine-7-carboxamide], the “Activity-Ratio MKNK1” value stood at 39.1.

For orientation: pIC50 means −log10 of the IC50, conventionally taken in molar units.
